Our source for the IC50, EC50 and AC50 values is ChEMBL document CHEMBL1201862, “PubChem BioAssay data set” (2004).

Holding throughout (assay type): functional
In test [1] the target is T1, High affinity choline transporter 1 (Homo sapiens, UniProt Q9GZV3).
T1 sequence (Q9GZV3 whole entry): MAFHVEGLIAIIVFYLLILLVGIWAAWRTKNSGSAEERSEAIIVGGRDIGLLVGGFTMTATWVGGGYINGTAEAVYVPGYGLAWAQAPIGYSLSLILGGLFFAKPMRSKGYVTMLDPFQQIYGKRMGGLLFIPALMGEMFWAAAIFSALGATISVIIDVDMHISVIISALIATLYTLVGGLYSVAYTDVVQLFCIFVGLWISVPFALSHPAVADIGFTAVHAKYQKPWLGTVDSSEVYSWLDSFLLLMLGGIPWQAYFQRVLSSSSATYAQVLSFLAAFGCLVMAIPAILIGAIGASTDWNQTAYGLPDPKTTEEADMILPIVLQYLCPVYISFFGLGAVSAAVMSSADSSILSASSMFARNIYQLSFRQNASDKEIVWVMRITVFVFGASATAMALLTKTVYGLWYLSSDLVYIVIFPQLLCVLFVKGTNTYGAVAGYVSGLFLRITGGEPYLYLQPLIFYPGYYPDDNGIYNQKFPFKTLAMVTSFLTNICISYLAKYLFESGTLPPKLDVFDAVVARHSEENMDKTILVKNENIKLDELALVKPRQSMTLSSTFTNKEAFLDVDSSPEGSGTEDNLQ
Description: CHT inhibitors, dose response, cell-based, 5-point CRC, membrane potential dye (AID 504840).

Test [2] concerns the target T1, High affinity choline transporter 1. Description: CHT inhibitors, dose response, cell-based, 10-point CRC, membrane potential dye (AID 588401).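 Note: membrane potential dye fluorescence of choline-evoked depolarization via CHT.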
For test [3], the target named is 26S proteasome non-ATPase regulatory subunit 14 (Homo sapiens, UniProt O00487). The experiment in a line: inhibition of proteasome subunit RPN11 – biochemical, fluorescence polarization, uHTS hits, confirmation (AID 602368).
The target of test [4] is 72 kDa type IV collagenase (Homo sapiens, UniProt P08253). Description: Dose Response validation of uHTS RPN11 inhibitor hits using a MMP-2 Fluorescence assay.
A further test has as its target Prothrombin (Bos taurus, UniProt P00735). The experiment in a line: thrombin inhibition, dose response, biochemical, fluorescence polarization, uHTS hits (AID 602369).
Test [5] deals with T2, Endoribonuclease toxin MazF (Escherichia coli K-12, UniProt P0AE70).
T2 sequence (P0AE70 whole entry): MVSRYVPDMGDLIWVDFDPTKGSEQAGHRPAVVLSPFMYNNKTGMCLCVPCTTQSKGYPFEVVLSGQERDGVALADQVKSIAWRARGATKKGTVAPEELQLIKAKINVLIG
Description: MazF toxin RNase activators, dose response, biochemical, fluorescence, single-stranded RNA substrate, uHTS hits (AID 588481).

In test [6] the target is T2, Endoribonuclease toxin MazF. Description: fluorescent RNA oligo signal without MazF, dose response, counter-screen for MazEF activator project, biochemical, fluorescence, single-stranded RNase substrate (AID 588502). For orientation: Counterscreens check selectivity or assay interference.
The next test has as its target T3, Protein skinhead-1 (Caenorhabditis elegans, UniProt P34707).
T3 sequence (P34707 whole entry): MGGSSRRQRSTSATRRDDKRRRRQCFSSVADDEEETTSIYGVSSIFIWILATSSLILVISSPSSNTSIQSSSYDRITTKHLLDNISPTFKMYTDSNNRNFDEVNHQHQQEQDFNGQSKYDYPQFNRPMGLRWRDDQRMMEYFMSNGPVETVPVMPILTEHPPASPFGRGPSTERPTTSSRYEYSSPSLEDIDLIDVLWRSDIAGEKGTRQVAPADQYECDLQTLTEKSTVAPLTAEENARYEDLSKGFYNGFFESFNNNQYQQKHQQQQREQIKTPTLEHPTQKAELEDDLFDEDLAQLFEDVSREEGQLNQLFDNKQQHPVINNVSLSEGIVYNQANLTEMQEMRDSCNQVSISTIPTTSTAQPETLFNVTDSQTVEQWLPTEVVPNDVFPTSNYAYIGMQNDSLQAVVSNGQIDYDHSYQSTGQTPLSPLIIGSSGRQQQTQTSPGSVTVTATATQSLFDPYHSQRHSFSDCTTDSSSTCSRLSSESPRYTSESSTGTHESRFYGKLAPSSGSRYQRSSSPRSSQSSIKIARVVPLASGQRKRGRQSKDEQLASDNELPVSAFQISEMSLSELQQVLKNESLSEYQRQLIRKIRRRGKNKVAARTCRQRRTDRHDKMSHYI

The target in a further test is T4, Caspase-3 (Homo sapiens, UniProt P42574).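 Note: Dose-response selectivity test against caspase-3 for candidate inhibitors of sentrin-specific proteases (SENPs).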
T4 sequence (P42574 whole entry): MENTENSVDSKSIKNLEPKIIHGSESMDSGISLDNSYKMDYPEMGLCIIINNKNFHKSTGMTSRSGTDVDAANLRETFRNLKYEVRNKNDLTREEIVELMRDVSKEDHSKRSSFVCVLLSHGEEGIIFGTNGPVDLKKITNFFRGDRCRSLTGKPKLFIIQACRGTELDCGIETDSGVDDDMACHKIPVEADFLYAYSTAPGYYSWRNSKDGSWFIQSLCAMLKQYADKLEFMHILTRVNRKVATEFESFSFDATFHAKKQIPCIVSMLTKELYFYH

Test [7] addresses T5, Sentrin-specific protease 7 (Homo sapiens, UniProt Q9BQF6).
T5 sequence (Q9BQF6 whole entry): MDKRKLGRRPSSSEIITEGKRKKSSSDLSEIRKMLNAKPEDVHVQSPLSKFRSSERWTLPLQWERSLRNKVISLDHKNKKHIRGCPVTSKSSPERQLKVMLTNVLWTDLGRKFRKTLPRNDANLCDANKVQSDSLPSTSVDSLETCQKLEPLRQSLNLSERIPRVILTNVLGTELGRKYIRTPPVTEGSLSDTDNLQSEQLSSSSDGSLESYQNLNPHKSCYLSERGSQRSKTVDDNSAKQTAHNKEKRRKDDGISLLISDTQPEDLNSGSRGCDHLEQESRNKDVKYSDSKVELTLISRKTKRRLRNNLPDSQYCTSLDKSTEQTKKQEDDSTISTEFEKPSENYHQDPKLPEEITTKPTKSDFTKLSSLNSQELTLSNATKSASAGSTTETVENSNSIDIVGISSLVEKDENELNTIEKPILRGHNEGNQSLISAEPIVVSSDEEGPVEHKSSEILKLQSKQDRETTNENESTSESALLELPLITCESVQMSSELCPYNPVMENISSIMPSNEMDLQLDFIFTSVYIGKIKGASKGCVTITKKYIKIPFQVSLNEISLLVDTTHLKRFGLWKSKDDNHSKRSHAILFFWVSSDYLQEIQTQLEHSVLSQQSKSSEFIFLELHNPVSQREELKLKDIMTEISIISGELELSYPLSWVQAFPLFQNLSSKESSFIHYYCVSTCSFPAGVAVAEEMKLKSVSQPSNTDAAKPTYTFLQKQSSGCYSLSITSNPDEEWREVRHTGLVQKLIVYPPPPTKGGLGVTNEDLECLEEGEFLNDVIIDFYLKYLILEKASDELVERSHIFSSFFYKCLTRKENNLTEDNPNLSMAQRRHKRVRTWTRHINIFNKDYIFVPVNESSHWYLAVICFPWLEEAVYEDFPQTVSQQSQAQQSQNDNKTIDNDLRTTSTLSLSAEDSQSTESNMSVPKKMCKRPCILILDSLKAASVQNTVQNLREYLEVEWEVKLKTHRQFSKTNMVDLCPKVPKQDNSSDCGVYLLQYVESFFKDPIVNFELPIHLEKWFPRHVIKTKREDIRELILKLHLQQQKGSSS

Test [8] concerns the target T6, Sentrin-specific protease 6 (Homo sapiens, UniProt Q9GZR1).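 Note: Luminescence-based dose-response confirmatory assay of SENP6 inhibition, following up an ultra-high-throughput screen.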
T6 sequence (Q9GZR1 whole entry): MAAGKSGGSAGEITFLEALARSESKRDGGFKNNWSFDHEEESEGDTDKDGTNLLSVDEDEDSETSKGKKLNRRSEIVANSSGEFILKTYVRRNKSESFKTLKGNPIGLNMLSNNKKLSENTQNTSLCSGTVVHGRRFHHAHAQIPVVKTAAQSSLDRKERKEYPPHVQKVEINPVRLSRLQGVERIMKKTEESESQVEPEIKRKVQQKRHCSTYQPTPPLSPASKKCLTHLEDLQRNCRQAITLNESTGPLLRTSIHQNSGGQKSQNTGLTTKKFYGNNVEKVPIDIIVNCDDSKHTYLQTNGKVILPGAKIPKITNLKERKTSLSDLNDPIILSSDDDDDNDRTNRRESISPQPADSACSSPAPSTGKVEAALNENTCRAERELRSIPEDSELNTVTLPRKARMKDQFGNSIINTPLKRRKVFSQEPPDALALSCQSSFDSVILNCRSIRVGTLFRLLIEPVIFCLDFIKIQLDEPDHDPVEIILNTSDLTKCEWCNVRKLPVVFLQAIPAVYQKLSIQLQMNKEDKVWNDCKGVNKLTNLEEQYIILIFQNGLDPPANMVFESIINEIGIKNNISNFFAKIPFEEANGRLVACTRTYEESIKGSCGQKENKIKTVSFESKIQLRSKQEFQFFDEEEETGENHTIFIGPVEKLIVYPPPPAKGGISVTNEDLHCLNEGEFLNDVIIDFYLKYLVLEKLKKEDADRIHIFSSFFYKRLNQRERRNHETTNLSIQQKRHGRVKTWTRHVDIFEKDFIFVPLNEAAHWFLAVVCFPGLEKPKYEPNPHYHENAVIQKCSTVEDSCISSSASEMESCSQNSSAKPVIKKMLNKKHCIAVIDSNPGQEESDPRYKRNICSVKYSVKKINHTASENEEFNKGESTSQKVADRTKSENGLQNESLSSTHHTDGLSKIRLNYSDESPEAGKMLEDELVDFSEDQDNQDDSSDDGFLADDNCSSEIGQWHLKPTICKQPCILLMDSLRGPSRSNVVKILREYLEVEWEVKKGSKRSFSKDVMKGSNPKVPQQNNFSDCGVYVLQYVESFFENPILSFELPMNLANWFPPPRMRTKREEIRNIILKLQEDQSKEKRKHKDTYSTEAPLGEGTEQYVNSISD

In test [9] the target is T7, Sentrin-specific protease 8 (Homo sapiens, UniProt Q96LD8).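 Note: luminescence read-out of SENP8 inhibition, dose-response confirmation following an ultra-high-throughput screen.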
T7 sequence (Q96LD8 whole entry): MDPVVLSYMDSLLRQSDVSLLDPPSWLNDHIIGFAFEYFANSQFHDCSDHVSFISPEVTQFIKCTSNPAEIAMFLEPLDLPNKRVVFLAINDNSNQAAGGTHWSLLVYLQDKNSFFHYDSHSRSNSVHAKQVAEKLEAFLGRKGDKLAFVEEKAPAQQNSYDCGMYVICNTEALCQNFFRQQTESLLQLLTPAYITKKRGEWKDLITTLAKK

Test [10] addresses Protein disulfide-isomerase (Homo sapiens, UniProt P07237). The experiment in a line: PDI inhibitors, insulin aggregation turbidity, dose response, biochemical, absorbance, cherry-picked samples (AID 602350).

Activity calls are given as the source filed them. A value given as a limit tells only on which side of the number the result lay.

Chain of 26S proteasome non-ATPase regulatory subunit 14 (O00487 whole entry): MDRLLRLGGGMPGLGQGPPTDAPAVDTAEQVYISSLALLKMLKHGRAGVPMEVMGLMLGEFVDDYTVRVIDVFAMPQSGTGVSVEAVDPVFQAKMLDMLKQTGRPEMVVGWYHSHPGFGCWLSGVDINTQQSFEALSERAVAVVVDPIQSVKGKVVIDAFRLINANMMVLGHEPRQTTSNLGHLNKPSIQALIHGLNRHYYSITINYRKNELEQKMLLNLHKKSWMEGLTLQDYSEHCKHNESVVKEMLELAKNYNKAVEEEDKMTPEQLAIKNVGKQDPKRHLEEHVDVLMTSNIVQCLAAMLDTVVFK
Chain of 72 kDa type IV collagenase (P08253 whole entry): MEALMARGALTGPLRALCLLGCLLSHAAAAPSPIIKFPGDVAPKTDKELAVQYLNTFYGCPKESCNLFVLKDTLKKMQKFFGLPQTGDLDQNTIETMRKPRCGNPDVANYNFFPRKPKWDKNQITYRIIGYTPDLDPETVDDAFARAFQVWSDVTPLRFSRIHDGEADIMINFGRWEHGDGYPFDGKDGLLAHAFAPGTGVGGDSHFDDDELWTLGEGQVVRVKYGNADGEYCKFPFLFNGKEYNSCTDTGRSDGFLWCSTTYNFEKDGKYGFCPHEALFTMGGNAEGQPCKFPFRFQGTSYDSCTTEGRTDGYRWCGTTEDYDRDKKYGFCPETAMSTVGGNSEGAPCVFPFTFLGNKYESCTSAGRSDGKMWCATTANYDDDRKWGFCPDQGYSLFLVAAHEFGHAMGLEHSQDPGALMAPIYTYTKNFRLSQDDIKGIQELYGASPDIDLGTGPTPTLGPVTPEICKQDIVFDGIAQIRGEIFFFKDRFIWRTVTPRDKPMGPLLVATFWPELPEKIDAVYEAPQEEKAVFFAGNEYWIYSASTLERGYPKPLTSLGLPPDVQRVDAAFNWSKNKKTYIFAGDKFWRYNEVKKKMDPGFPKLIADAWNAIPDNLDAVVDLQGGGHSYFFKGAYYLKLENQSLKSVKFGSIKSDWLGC
Chain of Protein disulfide-isomerase (P07237 whole entry): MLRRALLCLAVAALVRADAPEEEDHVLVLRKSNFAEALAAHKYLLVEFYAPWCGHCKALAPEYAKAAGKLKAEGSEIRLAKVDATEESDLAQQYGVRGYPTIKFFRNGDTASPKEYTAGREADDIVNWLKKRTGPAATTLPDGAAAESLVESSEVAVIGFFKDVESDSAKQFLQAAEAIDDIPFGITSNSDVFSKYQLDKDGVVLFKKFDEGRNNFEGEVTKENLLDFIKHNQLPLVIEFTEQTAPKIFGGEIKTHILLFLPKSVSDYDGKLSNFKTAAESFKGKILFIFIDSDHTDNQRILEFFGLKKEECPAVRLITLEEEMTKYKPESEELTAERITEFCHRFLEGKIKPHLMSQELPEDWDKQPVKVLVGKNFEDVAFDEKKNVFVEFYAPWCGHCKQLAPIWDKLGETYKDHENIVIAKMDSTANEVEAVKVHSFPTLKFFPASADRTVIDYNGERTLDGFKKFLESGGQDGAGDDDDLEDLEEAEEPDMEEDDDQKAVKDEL

What is called IC50 is the concentration that gives 50% inhibition. Take `COc1ccc(C2=NN(c3ccc(C(=O)O)cc3)C(c3ccc(OC)c(OC)c3)C2)cc1` (stereo not given): the IC50 in test [1] was 4.79 µM (active); in test [2], 3.55 µM (active).

As for `O=C(Nc1nc(-c2ccc(F)c(F)c2)cs1)Nc1ccc(F)cc1F`, the IC50 is 30.3 µM (active) in test [3], > 100 µM (inactive) in test [4] and 78.3 µM (active) on Prothrombin.

Regarding `O=C(OCCCOc1ccc(F)cc1)c1ccc(O)cc1O`, the IC50 in test [1] is 3.59 µM (active); in test [2] it was 4.47 µM (active).

For orientation: EC50 means the midpoint of the concentration-response curve. `COC(=O)CSc1nc2cc(C)cc(C)c2cc1C#N`: the EC50 in test [5] and in test [6] was > 99 µM (inactive) throughout. For the same compound, the IC50 at Protein skinhead-1 was > 100 µM (inactive).

Take `N=C1CCCN1CC(=O)c1ccc(Cl)cc1`: the IC50 in [1] was 6.01 µM (active); in [2] it was 2.7 µM (active).

As for `COc1cccc(/C=C(/CC(=O)Nc2ccc(N3CCOCC3)cc2)c2nc3ccccc3s2)c1`, the IC50 was 12.6 µM (active) in test [3], > 100 µM (inactive) in test [4] and 25 µM (active) at Prothrombin.

As for `Cc1ccc2oc(-c3ccccc3)nc2c1`, the IC50 on Caspase-3 was 5.39 µM (active); in test [7], 5.32 µM (active); in test [8] it was 7.6 µM (active); in [9], 39.3 µM (active).

A word on the AC50: it is the midpoint of the concentration-response curve, whichever way the signal moves. As for `CC(=O)OC[C@H]1O[C@@H](Oc2cc(O)cc3oc(-c4ccc(O)cc4)cc(=O)c23)[C@H](O[C@@H]2O[C@@H](C)[C@H](O)[C@@H](O)[C@H]2O)[C@@H](O)[C@@H]1O`, in [10], the AC50 is 19.5 µM (active).
